For one substance, IC50 results are on record in article PMC3651166, “Differential Cytotoxic Activity of a Novel Palladium-Based Compound on Prostate Cell Lines, Primary Prostate Epithelial Cells and Prostate Stem Cells” (PLoS ONE, 2013).

Like-named read-outs stand apart in the source and are kept apart here.

Common to all, as to assay type: cell-based, human
The test system of one assay is BPH-1. Kind of assay: MTS assay, anti-growth effect on cell line. The procedure:
(§1) In this study, six different prostate cell lines (PNT1A, PNT2-C2, BPH-1, PC-3, LNCaP, P4E6) were used (Table 1). These cell lines encompass the spectrum of cellular differentiation status (basal, intermediate and luminal phenotypes), as well as the spectrum of normal, early cancer and late cancer. BPH-1 is derived from benign prostate hyperplasia (BPH), while PNT2-C2 and PNT1A are derived from normal prostate. PC-3, LNCaP and P4E6 are cancer cell lines. LNCaP, PNT2-C2, PNT1A were grown in RPMI medium with 10% FCS (foetal calf serum); PC-3 was grown in Ham’s F-12 medium with 7% FCS; BPH-1 was grown in RPMI medium with 5% FCS; P4E6 was grown in KSFM (Keratinocyte serum free medium) with 2% FCS. No antibiotics were used in any media. The cells were incubated at 37°C in a humidified atmosphere containing 5% CO2.
(§2) This assay was performed for the initial screening of the effect of the Pd complex on the cell lines and the whole cell population of primary cultures. The CellTiter 96® Aqueous One Solution Cell Proliferation Assay kit (G3580, Promega, Madison, WI, USA) was used and the manufacturer’s instructions were followed. Briefly, after treating cells that were seeded at a density of 5,000 cells per well in a 96-well plate in triplicate for a desired period (24 h, 48 h, 72 h), 20 µL of reagent was added to each well. Following 2.5 h incubation at 37°C, the absorbance was read at 485 nm using a plate reader (PolarStar Optima, BMG Labtech, UK). Percent viability was calculated using the formula (% Viability = [(Sample Absorbance/Control Absorbance)]×100.
(§3) MTS and ATP assays were performed in triplicate and data presented as the mean +/− standard deviation. IC50 values (Table 3 and Table 4) were calculated from graphs of transformed data following application of the nonlinear regression (curve fit) that represents the log(inhibitor) ‘v’ normalized response (GraphPad Prism software) (Supplementary Figures S1 and S2). For significance calculations, the Wilcoxon rank sum test was used (Sigmaplot). Flow cytometry analysis was carried out in triplicate and results are presented as an average with error bars indicating the standard error.

The subject of another assay is LNCaP. Kind of assay: MTS assay, anti-growth effect on cell line. The procedure: as §1, §2, §3
A further assay deals with P4E6. As to the kind of experiment: MTS assay, anti-growth effect on cell line. The procedure:
as §1, §2, §3
(Tetrazolium assays rely on reduction of a dye to a coloured formazan, in cell work by metabolically active cells.)

Another assay relates to PC-3. As to the kind of experiment: MTS assay, anti-growth effect on cell line. The protocol:
as §1, §2, §3

In a further assay the test system is PNT1A. Kind of assay: MTS assay, anti-growth effect on cell line. The protocol: as §1, §2, §3
Another assay has as its system PNT2-C2. Kind of assay: MTS assay, anti-growth effect on cell line. The protocol:
as §1, §2, §3

Assay [1] has as its system PCa Primary cells (Gl8/9). As to the kind of experiment: MTS assay, primary cultures from prostate carcinoma Gleason 8/9.
Source text: Primary prostate epithelial cells were isolated from human tissue samples. The samples were collected with ethical permission from York District Hospital (York, UK) and Castle Hill Hospital (Cottingham, UK). Benign prostatic hyperplasia (BPH) and prostate cancer samples were obtained from TURP (transurethral resection of the prostate), radical prostatectomy (laparoscopic and open) and cystectomy operations. All patients gave written consent for their tissue to be used for research and all patient samples were anonymised. Permission was approved by the Local Research Ethical Committees, associated with York District Hospital and Castle Hill Hospital. Permission was administered by the Yorkshire and Humber Research Ethics Committee.
Prostate epithelial cells were cultured as previously described in stem cell media (SCM) consisting of keratinocyte serum-free media (KSFM) with bovine pituitary extract (BPE) and epidermal growth factor (EGF), glutamine, stem cell factor (SCF), granulocyte macrophage colony stimulating factor (GM-CSF), leukaemia inhibitory factor (LIF) and cholera toxin. Cells were grown with STO feeder cells (irradiated at 60 Gy) on collagen I-coated plates.
as §2, §3

With [PdCl(terpy)](sac)⋅2 H2O [Pd complex], the IC50 (as a rule, the concentration needed to halve the response being measured) in the assay on BPH-1 (BPH-1, 24 h) stood at 17.6 µM; with BPH-1 (BPH-1, 48 h) it was 1.88 µM; in the assay on BPH-1 (BPH-1, 72 h), 0.14 µM; with LNCaP (24 h), 106 µM; with LNCaP (48 h), 11.9 µM; with LNCaP (72 h), 3.43 µM. Moreover, the IC50 is 21.8 µM in the assay on P4E6 (P4E6, 24 h); 9.66 µM in the assay with P4E6 (P4E6, 48 h); 4.37 µM with P4E6 (P4E6, 72 h); 98.9 µM with PC-3 (PC-3, 24 h); 49.1 µM in the assay with PC-3 (PC-3, 48 h); 26.8 µM in the assay on PC-3 (PC-3, 72 h). In addition, the half-inhibitory concentration (IC50) amounted to 28 µM in the assay with PNT1A (24 h); 1.26 µM in the assay with PNT1A (48 h); 0.106 µM with PNT1A (72 h); 1.73 µM in the assay on PNT2-C2 (PNT2-C2, 24 h); 17.2 µM in the assay on PNT2-C2 (PNT2-C2, 48 h); 0.903 µM in the assay with PNT2-C2 (PNT2-C2, 72 h). Also, the half-maximal inhibitory concentration (IC50) in assay [1] (PCa primary cells (Gl8/9), sample 14912, 72 h, read-out: IC50) worked out at 64.1 µM; in assay [1] (PCa primary cells (Gl8/9), sample 16312, 72 h, read-out: IC50), 70.4 µM; in assay [1] (PCa primary cells (Gl8/9), sample 22912, 72 h, read-out: IC50) it was 46.7 µM; in assay [1] (average of PCa primary cells (Gl8/9), 72 h, read-out: IC50 AVERAGE), 60.4 µM.
